Measurements taken from patent US20100173832A1, “ANTICANCEROUS POLYMERIC AGENTS” (TECHNION RESEARCH & DEVELOPMENT FOUNDATION LTD., priority 2007, published 2010).
Like-named read-outs stand apart in the source and are kept apart here. Non-standard residues stand in square brackets, D forms with d. Residues, ends and D or L forms follow the SMILES beside them. *: point of attachment. Lauroyl = CCCCCCCCCCCC(=O)*; 12Ado = NCCCCCCCCCCCC(=O)O; Octanoyl = CCCCCCCC(=O)*

How the values were obtained:
TRAMP-C2 cell line = type: cell-based
Text: Transgenic adenocarcinoma mouse prostate cells (TRAMP-C2);
(§1) As a routine cancer cell killing assay for assessment of antitumor activity, 2,3-bis(2-methoxy-4-nitro-5-sulfophenyl)-2H-tetrazolium-5-carboxanilide inner salt (XTT) reduction assay was used, utilizing a commercial kit such as, for example, Cell Proliferation XTT Kit, Cat. No. 20-300-1000, Biological Industries Ltd., Kibbutz Beit Haemek, Israel. XTT is a tetrazolium salt which is cleaved to formazan colored compounds by the mitochondrial dehydrogenase enzymes indicating proper mitochondrial activity in intact cells.
(§2) Thereafter, a series of increasing concentrations of the polymers were added. After another 24 hours of incubation, XTT reaction solution was added (50 μl of XTT per 100 μl of cell culture medium). The optical density of the cells was measured at 450 nm by ELISA plate reader after 2-4 hours XTT incubation. Cell viability was determined relative to a control having no polymer added thereto.
“Mouse prostate cancer TRAMP-C2” represents the lethal concentration in μM as measured against TRAMP-C2 cell line, measured as described hereinabove in the cell proliferation XTT assay (column 5 in Table 3);

MCF-7 cell line = type: cell-based
Protocol: Human breast adenocarcinoma cells (MCF-7);
Thereafter, a series of increasing concentrations of the polymers were added. […] The optical density of the cells was measured at 450 nm by ELISA plate reader after 2-4 hours XTT incubation. Cell viability was determined relative to a control having no polymer added thereto.

N-417 cell line = assay: XTT cell viability assay, N-417 cells; type: cell-based
Text: Variant small cell lung cancer cells (N-417, SCLC);
as §1, §2
“Human breast cancer MCF-7” represents the lethal concentration in μM as measured against MCF-7 cell line, measured as described hereinabove in the cell proliferation XTT assay (column 6 in Table 3); “Human small-cell lung carcinoma N-417” represents the lethal concentration in μM as measured against N-417 cell line, measured as described hereinabove in the cell proliferation XTT assay (column 7 in Table 3);

[1] = XTT cell viability assay, non-cancerous cardiac fibroblasts (CF); type: cell-based, rat; conditions: rat
Text: Primary non-cancerous rat cardiac fibroblasts (CF);
as §1, §2
“Rat primary cardiac fibroblast CF” represents the lethal concentration in μM as measured against CF cell line, measured as described hereinabove in the cell proliferation XTT assay (column 8 in Table 3);

in vitro = conditions: human
Protocol: The polymer's toxic potential was determined against human red blood cells (RBC) by measuring leakage of hemoglobin therefrom in phosphate buffer solution (PBS). Human blood samples were rinsed three times in PBS by centrifugation for 2 minutes at 200×g, and re-suspended in PBS at 5% hematocrit. A 50 μl-fractions of a suspension containing […] RBC were added to test tubes containing 200 μl of polymer solutions (2-fold serial dilutions in PBS), PBS alone (for base-line values), or distilled water (for 100% hemolysis). […] Controls for base-line hemolysis (blank) and 100% hemolysis consisted of RBC suspended in PBS and TritonX100 (0.2%), respectively.

[2] = 24 hours incubation, XTT, read-out: Cancer LC50 Mouse prostate cancer TRAMP-C2
[3] = 24 hours incubation, XTT, read-out: Cancer LC50 Human breast cancer MCF-7
[4] = 24 hours incubation, XTT, read-out: Cancer LC50 Human small-cell lung carcinoma N-417
[5] = primary non-cancerous cardiac fibroblasts (CF), 24 hours incubation, XTT, non-cancerous cells, read-out: Cancer LC50 Rat primary cardiac fibroblast CF
[6] = LC50 against non-cancerous CF cells
[7] = Cancer LC50 Rat primary cardiac fibroblast CF

| Compound | CC50 (TRAMP-C2 cell line; [2]) | CC50 (MCF-7 cell line; [3]) | CC50 (N-417 cell line; [4]) | CC50 at 24 h [1, 5] | HC50 at 3 h (in vitro; red blood cells) | other results |
| --- | --- | --- | --- | --- | --- | --- |
| CCCCCCCCCCCC(=O)N[C@@H](CCCCN)C(=O)N[C@@H](CCCCN)C(=O)NCCCCCCCCCCCC(=O)N[C@@H](CCCCN)C(=O)N[C@@H](CCCCN)C(=O)NCCCCCCCCCCCC(=O)N[C@@H](CCCCN)C(=O)N[C@@H](CCCCN)C(=O)NCCCCCCCCCCCC(=O)N[C@@H](CCCCN)C(N)=O (Lauroyl-KK[12Ado]KK[12Ado]KK[12Ado]K-NH2) | > 16 µM | 8 ± 1 µM | 17 ± 2 µM | 36 ± 6 µM | 10 ± 1 µM |  |
| CCCCCCCCCCCC(=O)N[C@@H](CCCCN)C(=O)NCCCCCCCCCCCC(=O)N[C@@H](CCCCN)C(=O)N[C@@H](CCCCN)C(=O)NCCCCCCCCCCCC(=O)N[C@@H](CCCCN)C(=O)N[C@@H](CCCCN)C(=O)NCCCCCCCCCCCC(=O)N[C@@H](CCCCN)C(N)=O (Lauroyl-K[12Ado]KK[12Ado]KK[12Ado]K-NH2) | 10 µM | 6 ± 1 µM | < 16 µM | > 16 µM | 10 ± 0.1 µM | CC50 (TRAMP-C2 cell line; dose-dependent plot, FIG. 6a, read-out: LC50 towards TRAMP-C2 cells): 11 µM; CC50 at 24 h ([1]; primary non-cancerous cardiac fibroblasts (CF), dose-dependent plots, FIGS. 4a-b, 6a, read-out: LC50 against non-cancerous CF cells): 38 µM |
| NCCCC[C@H](NC(=O)CCCCCCCCCCCNC(=O)[C@H](CCCCN)NC(=O)[C@H](CCCCN)NC(=O)CCCCCCCCCCCNC(=O)[C@@H](N)CCCCN)C(N)=O [(KNC12K)2NH2] (HELM PEPTIDE1{K.[O=C(CCCCCCCCCCCN[*:1])[*:2]].K.K.[O=C(CCCCCCCCCCCN[*:1])[*:2]].K.[am]}$$$$V2.0) | > 16 µM | > 16 µM | > 16 µM | > 16 µM | > 100 µM |  |
| CCCCCCCC(=O)N[C@@H](CCCCN)C(=O)NCCCCCCCCCCCC(=O)N[C@@H](CCCCN)C(=O)N[C@@H](CCCCN)C(=O)NCCCCCCCCCCCC(=O)N[C@@H](CCCCN)C(=O)N[C@@H](CCCCN)C(=O)NCCCCCCCCCCCC(=O)N[C@@H](CCCCN)C(N)=O [C8(KNC12K)3NH2] (Octanoyl-K[12Ado]KK[12Ado]KK[12Ado]K-NH2) | 15 ± 0.7 µM | 8.7 ± 0.5 µM | 9 ± 1.4 µM | 37 ± 1 µM | 51 ± 6 µM |  |
| CCCCCCCC(=O)N[C@@H](CCCCN)C(=O)N[C@@H](CCCCN)C(=O)NCCCCCCCCCCCC(=O)N[C@@H](CCCCN)C(=O)N[C@@H](CCCCN)C(=O)NCCCCCCCCCCCC(=O)N[C@@H](CCCCN)C(=O)N[C@@H](CCCCN)C(=O)NCCCCCCCCCCCC(=O)N[C@@H](CCCCN)C(N)=O [C8K(KNC12K)3NH2] (Octanoyl-KK[12Ado]KK[12Ado]KK[12Ado]K-NH2) | 16 ± 2 µM | 5.7 ± 0.3 µM | 10 ± 0.4 µM | 25 ± 8 µM | > 100 µM | CC50 (MCF-7 cell line; dose-dependent plots, FIGS. 4a-b, read-out: LC50 against MCF-7 cells): 5.5 µM; CC50 at 24 h [1, 6]: 25 µM |
| CCCCCCCCCCCC(=O)N[C@@H](CCCCN)C(=O)NCCCCCCCCCCCC(=O)N[C@@H](CCCCN)C(=O)N[C@@H](CCCCN)C(=O)NCCCCCCCCCCCC(=O)N[C@@H](CCCCN)C(N)=O [C12(KNC12K)2NH2] (Lauroyl-K[12Ado]KK[12Ado]K-NH2) | > 16 µM |  | 10 ± 1 µM | 67 ± 10 µM | 17 ± 6 µM | CC50 (MCF-7 cell line; human, 24 h): 11 µM; CC50 at 24 h [1, 6]: 67 µM |
| NCCCC[C@@H]1NC(=O)CCCCCCCCCCCNC(=O)[C@H](CCCCN)NC(=O)[C@H](CCCCN)NC(=O)CCCCCCCCCCCNC(=O)[C@H](CCCCN)NC1=O [Cyclic-(KNC12K)2] (HELM PEPTIDE1{[O=C(CCCCCCCCCCCN[*:1])[*:2]].K.K.[O=C(CCCCCCCCCCCN[*:1])[*:2]].K.K}$PEPTIDE1,PEPTIDE1,1:R1-6:R2$$$V2.0) |  |  |  |  | > 100 µM |  |
| NCCCC[C@@H]1NC(=O)CCCCCCCCCCCNC(=O)[C@H](CCCCN)NC(=O)[C@H](CCCCN)NC(=O)CCCCCCCCCCCNC(=O)[C@H](CCCCN)NC(=O)[C@H](CCCCN)NC(=O)CCCCCCCCCCCNC(=O)[C@H](CCCCN)NC1=O [Cyclic-(KNC12K)3] (cyclo(K[12Ado]KK[12Ado]KK[12Ado]K)) |  |  |  |  |  | HC50 at 3 h (in vitro): > 100 µM |
| NCCCC[C@@H]1NC(=O)CCCCCCCCCCCNC(=O)[C@H](CCCCN)NC(=O)CCCCCCCCCCCNC(=O)[C@H](CCCCN)NC(=O)CCCCCCCCCCCNC(=O)[C@H](CCCCN)NC(=O)[C@H](CCCCN)NC(=O)CCCCCCCCCCCNC(=O)[C@H](CCCCN)NC(=O)CCCCCCCCCCCNC1=O [Cyclic-K(NC12K)5] (cyclo(K[12Ado]K[12Ado]K[12Ado]K[12Ado]K[12Ado]K)) |  |  |  |  |  | HC50 at 3 h (in vitro): 3.4 ± 0.3 µM |
| NCCCC[C@@H]1NC(=O)CCCCCCCCCCCNC(=O)[C@H](CCCCN)NC(=O)[C@H](CCCCN)NC(=O)CCCCCCCCCCCNC(=O)[C@H](CCCCN)NC(=O)[C@H](CCCCN)NC(=O)CCCCCCCCCCCNC1=O [Cyclic-NC12K(KNC12K)2] (cyclo([12Ado]KK[12Ado]KK[12Ado]K)) |  |  |  |  |  | HC50 at 3 h (in vitro): > 100 µM |
| NCCCC[C@@H]1NC(=O)CCCCCCCCCCCNC(=O)[C@H](CCCCN)NC(=O)[C@H](CCCCN)NC(=O)CCCCCCCCCCCNC1=O [Cyclic-NC12KKNC12K] (HELM PEPTIDE1{[O=C(CCCCCCCCCCCN[*:1])[*:2]].K.[O=C(CCCCCCCCCCCN[*:1])[*:2]].K.K}$PEPTIDE1,PEPTIDE1,1:R1-5:R2$$$V2.0) |  |  |  |  | > 100 µM |  |
| NCCCC[C@H](NC(=O)CCCCCCCCCCCNC(=O)[C@H](CCCCN)NC(=O)[C@H](CCCCN)NC(=O)CCCCCCCCCCCNC(=O)[C@H](CCCCN)NC(=O)[C@H](CCCCN)NC(=O)CCCCCCCCCCCNC(=O)[C@H](CCCCN)NC(=O)[C@@H](N)CCCCN)C(N)=O [K(KNC12K)3NH2] (H-KK[12Ado]KK[12Ado]KK[12Ado]K-NH2) | > 16 µM | > 16 µM | > 16 µM | > 16 µM | > 100 µM |  |
| NCCCC[C@H](NC(=O)CCCCCCCCCCCNC(=O)[C@H](CCCCN)NC(=O)[C@@H](N)CCCCN)C(N)=O [KKNC12KNH2] (HELM PEPTIDE1{K.K.[O=C(CCCCCCCCCCCN[*:1])[*:2]].K.[am]}$$$$V2.0) |  |  |  |  |  | CC50 (TRAMP-C2 cell line; mouse, 24 h): > 16 µM; CC50 (MCF-7 cell line; human, 24 h): > 16 µM; CC50 (N-417 cell line; human, 24 h): > 16 µM; CC50 at 24 h [1, 7]: > 16 µM |
| NCCCCCCCCCCCC(=O)N[C@@H](CCCCN)C(=O)NCCCCCCCCCCCC(=O)N[C@@H](CCCCN)C(=O)N[C@@H](CCCCN)C(=O)NCCCCCCCCCCCC(=O)N[C@@H](CCCCN)C(N)=O [NC12(KNC12K)2NH2] (H-[12Ado]K[12Ado]KK[12Ado]K-NH2) |  |  |  |  |  | CC50 (TRAMP-C2 cell line; mouse, 24 h): > 16 µM; CC50 (MCF-7 cell line; human, 24 h): > 16 µM; CC50 (N-417 cell line; human, 24 h): > 16 µM; CC50 at 24 h [1, 7]: > 16 µM |
| NCCCCCCCCCCCC(=O)N[C@@H](CCCCN)C(=O)N[C@@H](CCCCN)C(=O)NCCCCCCCCCCCC(=O)N[C@@H](CCCCN)C(=O)N[C@@H](CCCCN)C(=O)NCCCCCCCCCCCC(=O)N[C@@H](CCCCN)C(N)=O [NC12K(KNC12K)2NH2] (H-[12Ado]KK[12Ado]KK[12Ado]K-NH2) | > 16 µM | > 16 µM | > 16 µM | > 16 µM |  |  |
| NCCCCCCCCCCCC(=O)N[C@@H](CCCCN)C(=O)N[C@@H](CCCCN)C(=O)NCCCCCCCCCCCC(=O)N[C@@H](CCCCN)C(N)=O [NC12KKNC12KNH2] (HELM PEPTIDE1{[NCCCCCCCCCCCC(=O)[*:2]].K.K.[O=C(CCCCCCCCCCCN[*:1])[*:2]].K.[am]}$$$$V2.0) | > 16 µM | > 16 µM | > 16 µM | > 16 µM |  |  |
